Measurements published in patent publication US20250206708A1, “AN OXAZIRIDINE PLATFORM FOR TARGETING FUNCTIONAL ALLOSTERIC METHIONINE SITES” (Novartis AG, priority 2022, published 2025).

Legend:
CDK1 [1] = biological target: T1, CDK1 (Homo sapiens, UniProt P06493); assay: Gel-based ABPP, isoform specificity on CDK1; assay type: binding; conditions: dose-dependent treatment
Method: (§1) Activity-based protein profiling (ABPP) was performed as follows. CDK4 was diluted in PBS to 50 nM, then 50 μL was added to each well of a 96-well PCR plate. Ligands were dissolved fresh in DMSO to 5 μM, and 1 μL was added so each well contained a unique ligand at the indicated concentration. Wells were mixed and allowed to incubate 1 h at 23° C. Ligands were then chased with fresh Compound 301 with 1 μL of 5 μM added to each well (100 nM final), wells mixed and allowed to incubate 1 h at 23° C. Excess oxaziridine was quenched with N-acetyl methionine via addition of 1 μL of 10 mM DMSO stock (200 μM final), wells mixed and allowed to incubate 1 h at 23° C. A stock was prepared 1:5 of 12.5 μM DBCO-Cy3 in DMSO: 1.2% SDS/PBS. To each well was added 6 μL of this stock, the wells mixed and allowed to incubate overnight protected from light at 23° C. The next morning 30 μL of 4×Laemmli's buffer containing 10% BME was added to each well. The plate was sealed and brought to 95° C. for 6 min. Samples were loaded and separated on precast 4-20% TGX gels and scanned by ChemiDoc MP for measuring in-gel fluorescence. After that, the total protein level on the gel was assayed by silver staining according to the manufacturer's protocol and scanned by ChemiDoc MP.
(§2) The isoform specificity was tested with two closely-related congeners, CDK1 and CDK6.

CDK6 [2] = biological target: T2, CDK6 (Homo sapiens, UniProt Q00534); assay: Shotgun proteomics (MS/MS) modification of purified CDK6; assay type: binding; conditions: shotgun proteomics on purified protein
T2 sequence (Q00534 whole entry): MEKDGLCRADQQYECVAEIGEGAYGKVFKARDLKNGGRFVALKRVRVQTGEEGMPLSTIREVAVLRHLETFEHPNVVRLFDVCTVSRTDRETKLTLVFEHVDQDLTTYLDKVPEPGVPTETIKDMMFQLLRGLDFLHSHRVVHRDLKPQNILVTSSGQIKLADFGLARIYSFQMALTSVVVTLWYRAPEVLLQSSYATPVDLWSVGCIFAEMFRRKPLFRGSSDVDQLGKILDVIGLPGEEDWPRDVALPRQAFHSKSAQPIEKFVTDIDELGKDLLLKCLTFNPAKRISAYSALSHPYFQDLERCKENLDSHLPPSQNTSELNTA

[3] = tested on: ribociclib-sensitive cell lines; assay: Cell viability screen across ribociclib-sensitive cell lines; assay type: cell-based; conditions: 500 μM compound
Method: (§3) All cells were maintained as a monolayer in exponential growth at 37° C. in a 5% CO2 atmosphere. MCF-7 and HepG2 were maintained in Dulbecco's Modified Eagle Medium (DMEM, Gibco) supplemented with 10% (v/v) fetal bovine serum (FBS, Seradigm). HT-29 and SW-48 were maintained in RPMI 1640 Medium (Gibco) supplemented with 10% FBS.
(§4) All cells dosed with oxaziridine were treated using a 2% DMSO/media solution. Oxaziridines were dissolved in DMSO and used the same day as treatment. Media was removed from cells and replaced with fresh media containing oxaziridine in DMSO for a final concentration of 2% DMSO. Control wells were treated with 2% DMSO/media. Cells were incubated at 37° C. in a 5% CO2 atmosphere.
Commercially available Cell Counting Kit-8 Assay (Dojindo) was used to investigate cell viability after treatment with oxaziridines. Cells were plated in 96-well plates (black/clear bottom; Thermo Fisher) and grown to 75% confluency. Media was removed and replaced with media containing 2% DMSO and indicated compound concentration. Cells were allowed to incubate 24 h. To assess viability, media was removed and replaced with 100 μL media containing 10% CCK-8 assay solution. Plates were incubated at 37° C. in a 5% CO2 atmosphere for 1-4 h until an orange color was visible. Viability was quantified via plate reader (monofilter) with absorption at 450 nm. […]

MCF-7 cells = assay: Cell Counting Kit-8 cell viability assay in MCF-7; assay type: cell-based; conditions: Homo sapiens, MCF7; 24 h, CCK-8; read-out: EC50, decrease in cell viability of MCF-7 cells
Method: as §3, §4
Commercially available Cell Counting Kit-8 Assay (Dojindo) was used to investigate cell viability after treatment with oxaziridines. Cells were plated in 96-well plates (black/clear bottom; Thermo Fisher) and grown to 75% confluency. Media was removed and replaced with media containing 2% DMSO and indicated compound concentration. Cells were allowed to incubate 24 h. To assess viability, media was removed and replaced with 100 μL media containing 10% CCK-8 assay solution. Plates were incubated at 37° C. in a 5% CO2 atmosphere for 1-4 h until an orange color was visible. Viability was quantified via plate reader (monofilter) with absorption at 450 nm.

CDK6 [4] = biological target: T2, CDK6; assay: Gel-based ABPP, isoform specificity on CDK6; assay type: binding; conditions: dose-dependent treatment
Method: as §1, §2

CDK1 [5] = biological target: T1, CDK1; assay: Shotgun proteomics (MS/MS) modification of purified CDK1; assay type: binding; conditions: shotgun proteomics on purified protein
CDK4 [6] = biological target: CDK4 (Homo sapiens, UniProt P11802); assay: ADP-Glo luciferase-based in vitro activity assay on purified CDK4; assay type: biochemical; conditions: Rb (aa 773-928) substrate, read-out: IC50, inhibition of activity of purified CDK4 protein
Chain of CDK4 (Homo sapiens, UniProt P11802) (P11802 whole entry, the tested form may be a part): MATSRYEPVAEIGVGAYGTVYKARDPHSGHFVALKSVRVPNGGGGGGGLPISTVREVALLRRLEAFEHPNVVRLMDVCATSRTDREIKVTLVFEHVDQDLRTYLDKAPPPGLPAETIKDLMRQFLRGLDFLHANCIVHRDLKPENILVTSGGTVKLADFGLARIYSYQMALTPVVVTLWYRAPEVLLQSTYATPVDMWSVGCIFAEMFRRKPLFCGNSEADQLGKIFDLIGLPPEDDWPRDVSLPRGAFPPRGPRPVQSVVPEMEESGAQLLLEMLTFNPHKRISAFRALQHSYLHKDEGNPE
Chain of CDK4 (Homo sapiens, UniProt P11802) (P24385 whole entry partner, the tested form may be a part): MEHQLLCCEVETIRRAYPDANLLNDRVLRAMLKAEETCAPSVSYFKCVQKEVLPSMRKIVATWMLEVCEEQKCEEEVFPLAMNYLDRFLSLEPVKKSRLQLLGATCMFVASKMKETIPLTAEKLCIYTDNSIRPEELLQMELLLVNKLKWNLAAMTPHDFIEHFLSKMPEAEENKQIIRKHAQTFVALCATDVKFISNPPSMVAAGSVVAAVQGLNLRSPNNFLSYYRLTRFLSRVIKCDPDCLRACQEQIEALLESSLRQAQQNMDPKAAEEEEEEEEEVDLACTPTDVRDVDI
Method: Effects of Compound 148 on in vitro activity of CDK4 were determined via commercially available ADP-Glo assay (Promega; cat no.V6930). Isolated CDK4 was provided by Novartis. Retinoblastoma protein (aa 773-928) was obtained from commercial sources (Millipore Sigma; 12-439). The assay kit protocol was followed as directed, with the addition of a quench step (addition of 1 μL of 25 μM N-Acetyl methionine) after incubation of protein with oxaziridine ligand.

CDK4 [7] = assay: 2D gel electrophoresis western blot of CDK4 T172 phosphorylation in MCF-7; assay type: cell-based, human; conditions: MCF-7 cells, 2D SDS-PAGE, spot 3 normalized to spot 1
Method: Serum-synchronized MCF-7 cells were treated with compound according to method outlined. Cells were monitored by eye for cell death and harvested once high-dose cells were round but not detached, about 2 hours. Media was removed and cells washed with HBSS. Trypsin was added to detach cells. Cells were transferred to a falcon tube containing 7 mL of complete DMEM and centrifuged at 1200 rpm for 2 min. Supernatant discarded and pellet gently resuspended in 1 mL PBS and transferred to an Eppendorf tube. Sample was spun once more, after which the pellet was quickly rinsed with ice cold MQ and spun a final time. Pellet was aspirated, flash frozen with LN2, and stored at −80° C.
SCell pellets were solubilized in cold 30 mM Tris buffer pH 8.5 containing 7 M urea, 2 M thiourea and 4% CHAPS with continuous vortexing until unfrozen and then kept agitated for 20 min. After centrifugation at 15,700 g for 10 min at 4° C., proteins were quantified. An equal volume of 2-D-sample buffer (7 M urea, 2 M thiourea, 2% CHAPS, 0.4% 3-10 Pharmalytes, and 0.4% DTT) was added to samples normalized to 150 μg proteins. […] The proteins were detected using Western Lightning Plus ECL (Perkin Elmer) and viewed in Fusion FX gel documentation system using the Solo7S camera (Vilber Lourmat, France).

T1 sequence (P06493 whole entry, canonical isoform): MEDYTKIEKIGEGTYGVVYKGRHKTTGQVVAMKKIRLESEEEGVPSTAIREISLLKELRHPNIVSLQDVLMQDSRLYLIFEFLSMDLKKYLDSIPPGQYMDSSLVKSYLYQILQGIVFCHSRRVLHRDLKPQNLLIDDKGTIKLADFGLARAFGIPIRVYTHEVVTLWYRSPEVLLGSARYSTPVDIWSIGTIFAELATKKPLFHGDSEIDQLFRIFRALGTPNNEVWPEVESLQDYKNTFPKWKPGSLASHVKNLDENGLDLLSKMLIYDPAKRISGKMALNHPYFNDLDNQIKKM

How did the “labeling against CDK1 by gel analysis” value (CDK1 [1]) turn out when O=C(N1CC2COCC2C1)N1OC1c1ccccc1 (centres unmarked) [Compound 148] was run?
The value was “no dose-dependent labeling”.

What about the “modifications on CDK6” value (CDK6 [2]) of the same molecule?
Its value is “No modifications”.

What about the “cell viability of ribociclib-sensitive cell lines” value [3] of the same molecule?
Its value is “decrease cell viability”.

And the EC50 (MCF-7 cells)?
The EC50 was 330 µM.

What about the “labeling against CDK6 by gel analysis” value (CDK6 [4]) of the same molecule?
Its value is “no dose-dependent labeling”.

And the “modifications on CDK1” value (CDK1 [5])?
The value was “No modifications”.

What about the IC50 (CDK4 [6]) of the same molecule?
Its IC50 is about 0.2 µM.

And the “T172 phosphorylation status on CDK4” value (CDK4 [7])?
The value was “diminish T172 phosphorylation status on CDK4 in MCF-7 cells in a dose-dependent manner”.
